Measurements from patent publication US5543406A, “Inhibitors of 5-α-testosterone reductase” (priority 1994, dated 1996).

Legend:
[1] = target: Steroid 5-α-Reductase; assay: Steroid 5-α-reductase in vitro assay, rat prostate microsomes; type: biochemical; details: rat prostatic microsomes; 100 nM [3H]-testosterone, 1 mM NADPH, 60 minutes at 37° C.; read-out: ID50 Rat
[2] = target: T1, Steroid 5-α-Reductase (Homo sapiens, UniProt P31213); assay: Steroid 5-α-reductase in vitro assay, human prostate microsomes (BPH patients); type: biochemical; details: human prostatic microsomes; 100 nM [3H]-testosterone, 1 mM NADPH, 60 minutes at 37° C.
T1 construct: microsomes derived from prostate tissue of benign prostatic hypertrophy (BPH) patients; from tissue; host or cells: prostate tissue of BPH patients, microsomes
T1 sequence (P31213 1-254): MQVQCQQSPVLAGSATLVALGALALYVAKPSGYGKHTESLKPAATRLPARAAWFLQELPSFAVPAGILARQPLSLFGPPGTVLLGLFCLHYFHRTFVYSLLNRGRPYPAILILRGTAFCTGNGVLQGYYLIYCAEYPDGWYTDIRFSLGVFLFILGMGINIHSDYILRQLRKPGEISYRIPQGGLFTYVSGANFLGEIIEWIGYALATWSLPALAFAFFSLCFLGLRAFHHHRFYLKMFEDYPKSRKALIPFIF

## C[C@]12CC[C@H]3[C@@H](CNC4=CC(=O)CC[C@@]43C)[C@@H]1CC[C@@H]2C(=O)NCC1CC2CCC1C2 (stereo partly drawn) [Compound 60, 17β-N-exo-2-Norbornylmethylcarbamoyl-6-azaandrost-4-en-3-one]
[1]
  IC50: < 10 nM
[2]
  IC50: 10 to 100 nM

## CC1=C2NC[C@H]3[C@@H]4CC[C@H](C(=O)CC(C)C)[C@@]4(C)CC[C@@H]3[C@@]2(C)CCC1=O [Compound 64, 17β-(1-Oxo-3-methylbutyl)-6-azaandrost-4-methyl-4-en-3-one]
[1]
  IC50: 10 to 100 nM
[2]
  IC50: < 10 nM

## C[C@]12CC[C@H]3[C@@H](CNC4=CC(=O)CC[C@@]43C)[C@@H]1CC[C@@H]2C(=O)N1CCOCC1 [Compound 23, 17β-N-Morpholinocarbamoyl-6-azaandrost-4-en-3-one]
[1]
  IC50: 100 to 1000 nM
[2]
  IC50: 10 to 100 nM

## C[C@]12CC[C@H]3[C@@H](CNC4=CC(=O)CC[C@@]43C)[C@@H]1CC[C@@H]2C(=O)Nc1cccc2cc3ccccc3cc12 [Compound 67, 17β-N-1-Anthracylcarbamoyl-6-azaandrost-4-en-3-one]
[1]
  IC50: < 10 nM
[2]
  IC50: < 10 nM

## CN1C[C@H]2[C@@H]3CC[C@H](C(=O)NC45CC6CC(CC(C6)C4)C5)[C@@]3(C)CC[C@@H]2[C@@]2(C)CCC(=O)C=C12 [Compound 20, 17β-N-1-Adamantylcarbamoyl-6-methyl-6-azaandrost-4-en-3-one]
[1]
  IC50: < 10 nM
[2]
  IC50: < 10 nM

## CCN(CC)C(=O)[C@H]1CC[C@H]2[C@@H]3CN(C)C4=CC(=O)C=C[C@]4(C)[C@H]3CC[C@]12C [Compound 27, 17β-N,N-Diethylcarbamoyl-6-methyl-6-azaandrost-1,4-dien-3-one]
[1]
  IC50: 100 to 1000 nM
[2]
  IC50: 10 to 100 nM

## CCN(CC)C(=O)[C@H]1CC[C@H]2[C@@H]3CCNC4=CC(=O)CC[C@]4(C)[C@H]3CC[C@]12C [Compound 77, 17β-N,N-Diethylcarbamoyl-6-aza-B-homoandrost-4-en-3-one]
[1]
  IC50: 100 to 1000 nM
[2]
  IC50: 10 to 100 nM

## C[C@]12CC[C@H]3[C@@H](CNC4=CC(=O)CC[C@@]43C)[C@@H]1CC[C@@H]2C(=O)NC1CC2CCC1C2 (stereo partly drawn) [Compound 61, 17β-N-endo-2-Norbornylcarbamoyl-6-azaandrost-4-en-3-one]
[1]
  IC50: 10 to 100 nM
[2]
  IC50: 10 to 100 nM

## CC(C)CC(=O)[C@H]1CC[C@H]2[C@@H]3CNC4=CC(=O)CC[C@]4(C)[C@H]3CC[C@]12C [Compound 5, 17β-(1-Oxo-3-methylbutyl)-6-azaandrost-4-en-3-one]
[1]
  IC50: 10 to 100 nM
[2]
  IC50: < 10 nM

## C[C@]12CC[C@H]3[C@@H](CNC4=CC(=O)CC[C@@]43C)[C@@H]1CC[C@@H]2C(=O)OC1C2CC3CC(C2)CC1C3 (stereo partly drawn) [Compound 73, 17β-Carbo-(2-adamantyl)-oxy-6-azaandrost-4-en-3-one]
[1]
  IC50: < 10 nM
[2]
  IC50: < 10 nM

## C[C@]12CC[C@H]3[C@@H](CNC4=CC(=O)CC[C@@]43C)[C@@H]1CC[C@@H]2C(=O)OC12CC3CC(CC(C3)C1)C2 [Compound 74, 17β-Carbo-(1-adamantyl)-oxy-6-azaandrost-4-en-3-one]
[1]
  IC50: 10 to 100 nM
[2]
  IC50: < 10 nM

## CC1=C2NC[C@H]3[C@@H]4CC[C@H](C(=O)NC56CC7CC(CC(C7)C5)C6)[C@@]4(C)CC[C@@H]3[C@@]2(C)CCC1=O [Compound 56, 17β-N-1-Adamantylcarbamoyl-6-azaandrost-4-methyl-4-en-3-one]
[1]
  IC50: < 10 nM
[2]
  IC50: 10 to 100 nM

## CN1C[C@H]2[C@@H]3CC[C@H](C(=O)NC45CC6CC(CC(C6)C4)C5)[C@@]3(C)CC[C@@H]2[C@@]2(C)C=CC(=O)C=C12 [Compound 31, 17β-N-1-Adamantylcarbamoyl-6-methyl-6-azaandrost-1,4-dien-3-one]
[1]
  IC50: 10 to 100 nM
[2]
  IC50: < 10 nM

## C[C@]12CC[C@H]3[C@@H](CNC4=C(Br)C(=O)CC[C@@]43C)[C@@H]1CC[C@@H]2C(=O)NC12CC3CC(CC(C3)C1)C2 [Compound 55, 17β-N-1-Adamantylcarbamoyl-6-azaandrost-4-bromo-4-en-3-one]
[1]
  IC50: < 10 nM
[2]
  IC50: < 10 nM

## C[C@]12CC[C@H]3[C@@H](CNC4=CC(=O)CC[C@@]43C)[C@@H]1CC[C@@H]2C(=O)Sc1ccccn1 [Compound 4, 17β-(2-Pyridinylthiocarbonyl)-6-azaandrost-4-en-3-one]
[1]
  IC50: 100 to 1000 nM
[2]
  IC50: < 10 nM

## CC(C)(C)NC(=O)[C@H]1CC[C@H]2[C@@H]3CNC4=CC(=O)C=C[C@]4(C)[C@H]3CC[C@]12C [Compound 28, 17β-N-t-Butylcarbamoyl-6-azaandrost-1,4-dien-3-one]
[1]
  IC50: 100 to 1000 nM
[2]
  IC50: 10 to 100 nM

## C[C@]12CC[C@H]3[C@@H](CNC4=CC(=O)CC[C@@]43C)[C@@H]1CC[C@@H]2C(=O)N(c1ccccc1)c1ccccc1 [Compound 59, 17β-N-Diphenylcarbamoyl-6-azaandrost-4-en-3-one]
[1]
  IC50: 100 to 1000 nM
[2]
  IC50: < 10 nM

## CCN(CC)C(=O)[C@H]1CC[C@H]2[C@@H]3CNC4=C(Br)C(=O)CC[C@]4(C)[C@H]3CC[C@]12C [Compound 9, 17β-N,N-Diethylcarbamoyl-6-azaandrost-4-bromo-4-en-3-one]
[1]
  IC50: 100 to 1000 nM
[2]
  IC50: < 10 nM

## CCN(CC)C(=O)[C@H]1CC[C@H]2[C@@H]3CNC4=CC(=O)C(C)C[C@]4(C)[C@H]3CC[C@]12C (stereo partly drawn) [Compound 75, 17β-N,N-Diethylcarbamoyl-6-azaandrost-2-(α,β)-methyl-4-en-3-one]
[1]
  IC50: 100 to 1000 nM
[2]
  IC50: 10 to 100 nM

## CC1=C2NC[C@H]3[C@@H]4CC[C@H](C(=O)NC(C)(C)C)[C@@]4(C)CC[C@@H]3[C@@]2(C)CCC1=O [Compound 62, 17β-N-t-Butylcarbamoyl-6-azaandrost-4-methyl-4-en-3-one]
[1]
  IC50: 10 to 100 nM
[2]
  IC50: 10 to 100 nM

## CON(C)C(=O)[C@H]1CC[C@H]2[C@@H]3CNC4=CC(=O)CC[C@]4(C)[C@H]3CC[C@]12C [Compound 21, 17β-N-Methoxy-N-methylcarbamoyl-6-azaandrost-4-en-3-one]
[1]
  IC50: 100 to 1000 nM
[2]
  IC50: < 10 nM

## CC(C)N(C(=O)[C@H]1CC[C@H]2[C@@H]3CN(C)C4=CC(=O)CC[C@]4(C)[C@H]3CC[C@]12C)C(C)C [Compound 18, 17β-N,N-Diisopropylcarbamoyl-6-methyl-6-azaandrost-4-en-3-one]
[1]
  IC50: 10 to 100 nM
[2]
  IC50: < 10 nM

## CN1C[C@H]2[C@@H]3CC[C@H](C(=O)NC(C)(C)C)[C@@]3(C)CC[C@@H]2[C@@]2(C)C=CC(=O)C=C12 [Compound 29, 17β-N-t-Butylcarbamoyl-6-methyl-6-azaandrost-1,4-dien-3-one]
[1]
  IC50: 100 to 1000 nM
[2]
  IC50: 10 to 100 nM

## CCN(CC)C(=O)[C@H]1CC[C@H]2[C@@H]3CN(C)C4=CC(=O)CC[C@]4(C)[C@H]3CC[C@]12C [Compound 2, 17β-N,N-Diethylcarbamoyl-6-methyl-6-azaandrost-4-en-3-one]
[1]
  IC50: 10 to 100 nM
[2]
  IC50: < 10 nM

## CC1=C2N(C)C[C@H]3[C@@H]4CC[C@H](C(=O)NC56CC7CC(CC(C7)C5)C6)[C@@]4(C)CC[C@@H]3[C@@]2(C)CCC1=O [Compound 57, 17β-N-1-Adamantylcarbamoyl-6-methyl-6-azaandrost-4-methyl-4-en-3-one]
[1]
  IC50: < 10 nM
[2]
  IC50: 10 to 100 nM

## CC(C)N(C(=O)[C@H]1CC[C@H]2[C@@H]3CNC4=CC(=O)CC[C@]4(C)[C@H]3CC[C@]12C)C(C)C [Compound 17, 17β-N,N-Diisopropylcarbamoyl-6-azaandrost-4-en-3-one]
[1]
  IC50: 100 to 1000 nM
[2]
  IC50: < 10 nM
